The values that follow come from ChEMBL document CHEMBL1201862, “PubChem BioAssay data set” (2004).

The structures appear in SMILES notation.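 Where inhibition never reached the appropriate level, the endpoint shown equals the highest concentration tested. Otherwise, values were interpolated linearly from a five-concentration, 48-hour dose response in 96-well plates. GI50 marks 50% less growth.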 Activity calls are given as the source filed them. Cut-off read from the data, not from the text of the source: active = GI50 up to about 1.1 µM and inactive = higher. A value given as a limit tells only on which side of the number the result lay.

Among the test systems are RPMI-8226; KM12; UO-31; NCI-H226; U-251; OVCAR-4; HCT-15; MDA-N; OVCAR-3; SW-620; SF-295; A498; NCI-H522; MDA-MB-231; SK-MEL-28; UACC-257; IGROV-1; HL-60; HT-29; DU-145.
Holding throughout (test): growth of human tumour cells (NCI), 48 h

Regarding `O=C(O)CCSCc1ccccc1`, the GI50 in the experiment on RPMI-8226, in the experiment on KM12, in the experiment with UO-31, in the experiment with NCI-H226, in the experiment on U-251 and with OVCAR-4 was > 100 µM (inactive) in each case. Further, the GI50 in the experiment on HCT-15 was above 100 µM; in the experiment on MDA-N, > 100 µM (inactive); with OVCAR-3, > 100 µM (inactive); with SW-620, > 100 µM (inactive); in the experiment on SF-295, > 100 µM (inactive); in the experiment with A498 it was > 100 µM (inactive). Further, the GI50 with NCI-H522, in the experiment on MDA-MB-231, in the experiment on SK-MEL-28, with UACC-257, in the experiment on IGROV-1 and with HL-60 was > 100 µM (inactive) each time. Moreover, the GI50 with HT-29 and in the experiment on DU-145 was > 100 µM (inactive) each time.

Turning to `O=C(O)C1C(C(=O)O)C2C(=O)C=CC1N2Cc1ccccc1` (stereo not given), the GI50 was 2.96 µM (inactive) with RPMI-8226; 3.61 µM (inactive) with KM12; 1.71 µM (inactive) in the experiment with UO-31; 16 µM (inactive) with NCI-H226; 3.52 µM (inactive) with U-251; 4.32 µM (inactive) in the experiment with OVCAR-4. The GI50 in the experiment on HCT-15 is 2.46 µM; in the experiment on MDA-N, 2.56 µM (inactive); in the experiment on OVCAR-3, 2.87 µM (inactive); in the experiment with SW-620 it was 2.65 µM (inactive); in the experiment on SF-295 it was 11.3 µM (inactive); in the experiment on A498, 20.3 µM (inactive). For the same compound, the GI50 was 1.87 µM (inactive) in the experiment on NCI-H522; 3.16 µM (inactive) with MDA-MB-231; 4.29 µM (inactive) in the experiment on SK-MEL-28; 2.62 µM (inactive) in the experiment on UACC-257; 6.5 µM (inactive) in the experiment with IGROV-1; 1.77 µM (inactive) in the experiment with HL-60. Besides, the GI50 in the experiment with HT-29 was 3.12 µM (inactive); with DU-145 it was 1.99 µM (inactive).

As to `NC(=O)c1nnn(Cc2cc(Cl)c(C(=O)c3ccc(Cl)cc3)c(Cl)c2)c1N` [CARBOXYAMIDOTRIAZOLE], the GI50 in the experiment with RPMI-8226 is 25.4 µM (inactive); in the experiment with KM12, 10.4 µM (inactive); in the experiment on UO-31, 25.6 µM (inactive); in the experiment with NCI-H226 it was 33 µM (inactive); in the experiment on U-251, 18.2 µM (inactive); in the experiment with OVCAR-4 it was 22 µM (inactive). For the same compound, the GI50 in the experiment with HCT-15 was 12.7 µM; in the experiment with MDA-N it was 10.7 µM (inactive); in the experiment with OVCAR-3 it was 12.3 µM (inactive); in the experiment with SW-620 it was 27.1 µM (inactive); in the experiment with SF-295, 9.77 µM (inactive); in the experiment on A498, 13.7 µM (inactive). Further, the GI50 was 19 µM (inactive) in the experiment with NCI-H522; > 36.2 µM (inactive) in the experiment on MDA-MB-231; 27.9 µM (inactive) in the experiment on SK-MEL-28; 7.98 µM (inactive) in the experiment with UACC-257; 22.5 µM (inactive) in the experiment with IGROV-1; 14.8 µM (inactive) in the experiment with HL-60. For the same compound, the GI50 with HT-29 is 22.8 µM (inactive); with DU-145, 19.2 µM (inactive).

Regarding `COc1cc2c(c(OC)c1OC)-c1ccc(=O)c(O)cc1[C@@H](NC(C)=O)CC2` [COLCHICEINE], the GI50 in the experiment on RPMI-8226 was 11.1 µM (inactive); in the experiment with KM12, 15 µM (inactive); in the experiment on UO-31 it was 17.6 µM (inactive); with NCI-H226 it was 19.7 µM (inactive); with U-251, 15.7 µM (inactive); with OVCAR-4, 12.6 µM (inactive). Further, the GI50 was 10.7 µM in the experiment on HCT-15; 16.9 µM (inactive) in the experiment with MDA-N; 29.6 µM (inactive) in the experiment with OVCAR-3; 26.5 µM (inactive) in the experiment with SW-620; 22.2 µM (inactive) in the experiment on SF-295; 18.4 µM (inactive) with A498. For the same compound, the GI50 in the experiment on NCI-H522 is 12.2 µM (inactive); with MDA-MB-231, 15.4 µM (inactive); with SK-MEL-28, 42.5 µM (inactive); with UACC-257 it was 21.2 µM (inactive); in the experiment with IGROV-1, 26.3 µM (inactive); in the experiment with HL-60, 4.99 µM (inactive). The GI50 in the experiment with HT-29 was 16.1 µM (inactive); in the experiment on DU-145, 27.6 µM (inactive).
